PMC6019934 (ChemMedChem, 2018)
Values after ≈ are worked out from the molar mass of the structure shown. Where two headings read alike, the source gives them in different places.

Tests used:
[1] = target: T1, MraY from S. aureus (Staphylococcus aureus, UniProt Q2FZ93); assay: biochemical; assay type: biochemical
T1 sequence (Q2FZ93 1-321): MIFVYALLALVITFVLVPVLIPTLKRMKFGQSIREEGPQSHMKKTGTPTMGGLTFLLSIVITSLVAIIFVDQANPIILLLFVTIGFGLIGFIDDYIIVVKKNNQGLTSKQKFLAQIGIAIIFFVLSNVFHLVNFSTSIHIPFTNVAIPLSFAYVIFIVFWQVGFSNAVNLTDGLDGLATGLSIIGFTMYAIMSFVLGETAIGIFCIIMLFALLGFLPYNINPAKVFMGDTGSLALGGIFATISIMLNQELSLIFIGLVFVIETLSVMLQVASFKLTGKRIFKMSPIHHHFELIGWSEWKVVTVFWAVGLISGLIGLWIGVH

[2] = target: T2, MraY from Aquifex aeolicus (Aquifex aeolicus, UniProt O66465); assay type: biochemical
T2 sequence (O66465 1-359): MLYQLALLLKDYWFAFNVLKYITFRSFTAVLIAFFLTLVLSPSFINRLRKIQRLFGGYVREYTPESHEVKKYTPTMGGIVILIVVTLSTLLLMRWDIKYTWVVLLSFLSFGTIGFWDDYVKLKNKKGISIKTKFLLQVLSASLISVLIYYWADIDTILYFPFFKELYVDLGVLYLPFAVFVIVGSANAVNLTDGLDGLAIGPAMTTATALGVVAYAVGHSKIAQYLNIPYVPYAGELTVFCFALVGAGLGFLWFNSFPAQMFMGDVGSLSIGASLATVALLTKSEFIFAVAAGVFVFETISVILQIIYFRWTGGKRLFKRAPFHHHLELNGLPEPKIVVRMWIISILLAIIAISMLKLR

[3] = target: MraY from C. bolteae (Enterocloster bolteae, UniProt R0BTE9); assay: Fluorescence-based in vitro MraY assay, MraY from C. bolteae; assay type: biochemical, Clostridium bolteae; settings: IC50 ± SD
[4] = system: E. coli efflux-deficient ΔtolC mutant; assay: Minimal inhibitory concentration against growth of E. coli ΔtolC; assay type: cell-based
[5] = system: E. coli DH5α strain; assay: Minimal inhibitory concentration against growth of E. coli DH5α; assay type: cell-based; settings: Escherichia coli, read-out: MIC (E. coli DH5α)
[6] = system: S. aureus subsp. aureus (Newman strain); assay: Minimal inhibitory concentration against growth of S. aureus; assay type: cell-based
[7] = read-out: IC50 (MraY S. aureus), crude membranes, IC50 ± SD
[8] = read-out: IC50 (MraY Aquifex aeolicus), solubilized and purified form, IC50 ± SD
[9] = read-out: IC50 (MraY C. bolteae crude), protein in crude membranes
[10] = read-out: IC50 (MraY C. bolteae solubil.), protein in solubilized and purified form
[11] = IC50 (MraY C. bolteae crude), protein in crude membranes
[12] = IC50 (MraY C. bolteae solubil.), protein in solubilized and purified form

Compound | IC50 [1, 7] [pM] | IC50 [2, 8] [pM] | IC50 [3, 9] [pM] | IC50 [3, 10] [pM] | MIC (E. coli ΔtolC) [4] [µg/mL] | MIC [5] [µg/mL] | IC50 [1] [pM] | fold difference in MraY inhibition between C1 6 and D1 7 ([1]; crude membranes only (S. aureus and C. bolteae MraY)) | fold less active MraY inhibitor than C1 6 (S. aureus) ([1]; crude membranes, relative to C1 6) | IC50 [2] [pM] | fold lower inhibitory activity than C1 6 (Aquifex aeolicus) ([2]; solubilized Aquifex aeolicus protein, relative to C1 6) | IC50 [3, 11] [pM] | IC50 [3, 12] [pM] | antibacterial activity against S. aureus in words [6]
CO[C@H]1[C@H](O[C@H]([C@H]2O[C@@H](n3ccc(=O)[nH]c3=O)[C@H](O)[C@@H]2O)[C@H](NCCCNC(=O)[C@@H](NC(=O)[C@@H](NC(=O)N[C@H](C(=O)O)C(C)C)[C@@H]2CCN=C(N)N2)[C@@H](OC(=O)CCCCC(C)C)C(C)C)C(=O)O)O[C@H](CN)[C@H]1O [B6 5, muraymycin B6] | 21 ± 2 | 190 ± 20 | 36 | 380 ± 30 | 1 (≈ 0.933 µM) | > 32 | – | – | – | – | – | – | – | –
CO[C@H]1[C@H](O[C@H]([C@H]2O[C@@H](n3ccc(=O)[nH]c3=O)[C@H](O)[C@@H]2O)[C@H](NCCCNC(=O)[C@H](CC(C)C)NC(=O)[C@@H](NC(=O)N[C@H](C(=O)O)C(C)C)[C@@H]2CCNC(=N)N2)C(=O)O)O[C@H](CN)[C@H]1O [D1 7, muraymycin D1] | – | – | – | – | 1 (≈ 1.08 µM) | > 32 | 480 ± 130 | 30- to 430 fold | ca. 30 fold | 99000 ± 30000 | ca. 280 fold | 40000 | 380000 ± 110000 | –
CO[C@H]1[C@H](O[C@H]([C@H]2O[C@@H](n3ccc(=O)[nH]c3=O)[C@H](O)[C@@H]2O)[C@H](NCCCNC(=O)[C@@H](NC(=O)[C@@H](NC(=O)N[C@H](C(=O)O)C(C)C)[C@@H]2CCNC(=N)N2)[C@@H](OC(=O)CCCCCCCCCCCCN(O)C(=N)N)C(C)C)C(=O)O)O[C@H](CN)[C@H]1O [A1 3, muraymycin A1] | 27 ± 3 | 110 ± 20 | 17 | 160 ± 40 | 2 (≈ 1.65 µM) | > 32 | – | – | – | – | – | – | – | only congener with notable activity against S. aureus
CO[C@H]1[C@H](O[C@H]([C@H]2O[C@@H](n3ccc(=O)[nH]c3=O)[C@H](O)[C@@H]2O)[C@H](NCCCNC(=O)[C@@H](NC(=O)[C@@H](NC(=O)N[C@H](C(=O)O)C(C)C)[C@@H]2CCN=C(N)N2)[C@@H](OC(=O)CCCCCCC(C)C)C(C)C)C(=O)O)O[C@H](CN)[C@H]1O [B2 4, muraymycin B2] | 10 ± 2 | 110 ± 10 | 8.3 | 140 ± 10 | 1 (≈ 0.909 µM) | > 32 | – | – | – | – | – | – | – | –
CO[C@H]1[C@H](O[C@H]([C@H]2O[C@@H](n3ccc(=O)[nH]c3=O)[C@H](O)[C@@H]2O)[C@H](NCCCNC(=O)[C@@H](NC(=O)[C@@H](NC(=O)N[C@H](C(=O)O)C(C)C)[C@@H]2CCNC(=N)N2)[C@@H](O)C(C)C)C(=O)O)O[C@H](CN)[C@H]1O [C1 6, muraymycin C1] | – | – | – | – | 1 (≈ 1.06 µM) | > 32 | 16 ± 2 | – | – | – | – | 93 | 450 ± 170 | –
CC(C)C[C@H](NC(=O)[C@@H](NC(=O)N[C@H](C(=O)O)C(C)C)[C@@H]1CCNC(=N)N1)C(=O)NCCCN[C@H](C(=O)O)[C@H](O[C@@H]1O[C@H](CN)[C@@H](O)[C@H]1O)[C@H]1O[C@@H](n2ccc(=O)[nH]c2=O)[C@H](O)[C@@H]1O [D2 8, muraymycin D2] | – | – | – | – | 1 (≈ 1.09 µM) | > 32 | 390 ± 110 | – | – | 46000 ± 13000 | – | 25000 | 200000 ± 30000 | –
